Assay results published in ChEMBL document CHEMBL6121045, “Effects of Heparan Sulfate Trisaccharide Containing Oleanolic Acid in Attenuating Hyperphosphorylated Tau-Induced Cell Dysfunction Associated with Alzheimer's Disease” (J Med Chem, 2025).
Activity calls are given as the source filed them.

Key:
[1] = system: SH-SY5Y; experiment: Cytoprotective activity against p-tau-induced toxicity in human SH-SY5Y cells assessed as cell death at 8 uM incubated for 12 hrs by CCK-8 assay; format: functional, cell-based
[2] = system: SH-SY5Y; experiment: Antiinflammatory activity against p-tau-induced human SH-SY5Y cells assessed as reduction in IRF3 mRNA expression at 5 uM by qRT-PCR analysis; format: functional, cell-based
[3] = system: SH-SY5Y; experiment: Protective activity against p-tau induced ER-stress associated apoptosis in human SH-SY5Y cells assessed as reduction in TRB3 mRNA expression by qRT-PCR analysis; format: functional, cell-based
[4] = system: SH-SY5Y; experiment: Protective activity against p-tau induced ER-stress associated apoptosis in human SH-SY5Y cells assessed as reduction in ATF4 mRNA expression by qRT-PCR analysis; format: functional, cell-based
[5] = system: SH-SY5Y; experiment: Antiinflammatory activity against p-tau-induced human SH-SY5Y cells assessed as reduction in TNFalpha mRNA expression at 5 uM by qRT-PCR analysis; format: functional, cell-based
[6] = system: SH-SY5Y; experiment: Antiinflammatory activity against p-tau-induced human SH-SY5Y cells assessed as reduction in IL1beta mRNA expression at 5 uM by qRT-PCR analysis; format: functional, cell-based
[7] = system: SH-SY5Y; experiment: Protective activity against p-tau induced ER-stress associated apoptosis in human SH-SY5Y cells assessed as reduction in GADD34 mRNA expression by qRT-PCR analysis; format: functional, cell-based
[8] = system: SH-SY5Y; experiment: Protective activity against p-tau induced ER-stress associated apoptosis in human SH-SY5Y cells assessed as reduction in CHOP mRNA expression by qRT-PCR analysis; format: functional, cell-based
[9] = system: SH-SY5Y; experiment: Cytoprotective activity against p-tau-induced toxicity in human SH-SY5Y cells assessed as reduction in cell viability at 0.3 uM incubated for 12 hrs by CCK-8 assay; format: functional, cell-based
[10] = system: SH-SY5Y; experiment: Cytoprotective activity against p-tau-induced toxicity in human SH-SY5Y cells assessed as reduction in cell viability at 8 uM incubated for 12 hrs by CCK-8 assay relative to control; format: functional, cell-based
[11] = system: SH-SY5Y; experiment: Cytoprotective activity against p-tau-induced toxicity in human SH-SY5Y cells assessed as cell viability incubated for 12 hrs by CCK-8 assay; format: functional, cell-based
[12] = system: SH-SY5Y; experiment: Cytoprotective activity against p-tau-induced toxicity in human SH-SY5Y cells incubated for 24 hrs by TEM analysis; format: functional, cell-based
[13] = system: SH-SY5Y; experiment: Protective activity against tunicamycin induced ER-stress in human SH-SY5Y cells assessed as reduction Xbp1s mRNA expression at 5 uM incubated for 24 hrs by qRT-PCR analysis; format: functional, cell-based
[14] = system: SH-SY5Y; experiment: Protection against p-tau-induced morphological changes in human SH-SY5Y cells assessed as change in cell density at 5 uM incubated for 24 hrs by contrast microscopic analysis; format: functional, cell-based
[15] = system: SH-SY5Y; experiment: Protective activity against tunicamycin induced ER-stress in human SH-SY5Y cells assessed as reduction P58ipk mRNA expression at 5 uM incubated for 24 hrs by qRT-PCR analysis; format: functional, cell-based
[16] = system: SH-SY5Y; experiment: Protective activity against p-tau induced UPR response in human SH-SY5Y cells assessed as reduction spliced Xbp1 mRNA expression at 5 uM by qRT-PCR analysis; format: functional, cell-based
[17] = system: SH-SY5Y; experiment: Protective activity against p-tau induced ER-stress in human SH-SY5Y cells assessed as reduction ERdj4 mRNA expression at 5 uM by qRT-PCR analysis; format: functional, cell-based
[18] = system: SH-SY5Y; experiment: Protective activity against tunicamycin induced ER-stress in human SH-SY5Y cells assessed as reduction ATF4 mRNA expression at 5 uM incubated for 24 hrs by qRT-PCR analysis; format: functional, cell-based
[19] = system: SH-SY5Y; experiment: Protective activity against p-tau induced UPR response in human SH-SY5Y cells assessed as reduction ERdj4 mRNA expression at 5 uM by qRT-PCR analysis; format: functional, cell-based
[20] = system: SH-SY5Y; experiment: Protective activity against thapsigargin induced ER-stress in human SH-SY5Y cells assessed as reduction ATF4 mRNA expression at 5 uM incubated for 24 hrs by qRT-PCR analysis; format: functional, cell-based
[21] = target: Microtubule-associated protein tau (Homo sapiens, UniProt P10636); experiment: Inhibition of BLI biosensor-immobilized heparin binding to p-tau hyperphosphorylation (unknown origin) by Biolayer interferometry analysis
[22] = system: SH-SY5Y; experiment: Cytoprotective activity against p-tau-induced toxicity in human SH-SY5Y cells assessed as reduction in cell viability at 8 uM incubated for 12 hrs by CCK-8 assay; format: functional, cell-based
[23] = system: SH-SY5Y; experiment: Protective activity against thapsigargin induced ER-stress in human SH-SY5Y cells assessed as reduction P58ipk mRNA expression at 5 uM incubated for 24 hrs by qRT-PCR analysis; format: functional, cell-based
[24] = system: SH-SY5Y; experiment: Protective activity against p-tau induced UPR response in human SH-SY5Y cells assessed as reduction Bip mRNA expression at 5 uM by qRT-PCR analysis; format: functional, cell-based
[25] = target: T1, Platelet factor 4 (Homo sapiens, UniProt P02776); experiment: Binding affinity to human recombinant PF4 by Biolayer interferometry analysis
T1 sequence (P02776 whole entry): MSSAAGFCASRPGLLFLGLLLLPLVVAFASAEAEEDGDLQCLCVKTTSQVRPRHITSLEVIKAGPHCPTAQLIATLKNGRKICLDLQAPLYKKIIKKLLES

[26] = system: SH-SY5Y; experiment: Protective activity against p-tau induced ER-stress in human SH-SY5Y cells assessed as reduction Bip mRNA expression at 5 uM by qRT-PCR analysis; format: functional, cell-based
[27] = system: SH-SY5Y; experiment: Protective activity against thapsigargin induced ER-stress in human SH-SY5Y cells assessed as reduction Xbp1s mRNA expression at 5 uM incubated for 24 hrs by qRT-PCR analysis; format: functional, cell-based
[28] = system: SH-SY5Y; experiment: Protective activity against p-tau induced ER-stress in human SH-SY5Y cells assessed as reduction spliced Xbp1 mRNA expression at 5 uM by qRT-PCR analysis; format: functional, cell-based
[29] = system: SH-SY5Y; experiment: Protection against p-tau-induced morphological changes in human SH-SY5Y cells assessed as change in cell morphology at 5 uM incubated for 24 hrs by contrast microscopic analysis; format: functional, cell-based

Chain of Microtubule-associated protein tau (P10636 whole entry): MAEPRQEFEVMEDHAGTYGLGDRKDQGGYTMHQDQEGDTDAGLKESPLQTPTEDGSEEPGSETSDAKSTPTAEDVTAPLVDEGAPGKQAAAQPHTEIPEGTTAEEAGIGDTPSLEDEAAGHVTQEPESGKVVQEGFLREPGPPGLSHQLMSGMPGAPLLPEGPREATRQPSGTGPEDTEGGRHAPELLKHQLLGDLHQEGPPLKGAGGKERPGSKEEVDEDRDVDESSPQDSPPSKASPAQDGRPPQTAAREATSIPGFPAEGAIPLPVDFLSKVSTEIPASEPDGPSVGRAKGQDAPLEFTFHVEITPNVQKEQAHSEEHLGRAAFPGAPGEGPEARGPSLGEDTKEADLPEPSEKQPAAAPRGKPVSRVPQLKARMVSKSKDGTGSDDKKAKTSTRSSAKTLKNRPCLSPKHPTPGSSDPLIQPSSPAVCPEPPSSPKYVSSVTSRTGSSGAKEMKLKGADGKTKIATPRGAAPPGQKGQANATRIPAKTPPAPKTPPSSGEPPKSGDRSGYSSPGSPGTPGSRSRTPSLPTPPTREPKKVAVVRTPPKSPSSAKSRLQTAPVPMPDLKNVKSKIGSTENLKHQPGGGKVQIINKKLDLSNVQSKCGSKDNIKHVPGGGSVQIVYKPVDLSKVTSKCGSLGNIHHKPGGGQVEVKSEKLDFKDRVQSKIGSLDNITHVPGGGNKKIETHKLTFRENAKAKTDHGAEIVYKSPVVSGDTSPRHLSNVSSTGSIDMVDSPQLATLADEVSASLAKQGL

O=C(O)[C@H]1O[C@@H](O[C@H]2[C@H](O)[C@@H](NS(=O)(=O)O)[C@H](OCCNS(=O)(=O)O)O[C@@H]2COS(=O)(=O)O)[C@H](O)[C@@H](O)[C@@H]1O[C@H]1O[C@H](COS(=O)(=O)O)[C@@H](O)[C@H](O)[C@H]1NS(=O)(=O)O
inactive: Activity [1] | Activity [2] | Activity [3] | Activity [4] | Activity [5] | Activity [6] | Activity [7] | Activity [8]
Moderate_effect: Activity [9]

COC(=O)[C@]12CCC(C)(C)C[C@H]1C1=CCC3[C@@]4(C)CC[C@H](O)C(C)(C)C4CC[C@@]3(C)C1(C)CC2 (some centres undefined)
inactive: Activity [10] No effect

CN1CCc2cccc3c2[C@H]1Cc1ccc(O)c(O)c1-3 [APOMORPHINE]
active: Activity [12]
2900 nM: EC50 [11]

COC(=O)[C@]12CCC(C)(C)C[C@H]1C1=CCC3[C@@]4(C)CC[C@H](O[C@@H]5O[C@H](COS(=O)(=O)O)[C@@H](O[C@@H]6O[C@H](C(=O)O)[C@@H](O[C@H]7O[C@H](COS(=O)(=O)O)[C@@H](O)[C@H](O)[C@H]7NS(=O)(=O)O)[C@H](O)[C@H]6O)[C@H](O)[C@H]5NS(=O)(=O)O)C(C)(C)C4CC[C@@]3(C)C1(C)CC2 (some centres undefined)
28.8 µM: IC50 [21]
21.8 µM: IC50 [25]
active: Activity [2] | Activity [3] | Activity [14] | Activity [4] | Activity [16] | Activity [5] | Activity [17] | Activity [19] | Activity [6] | Activity [22] | Activity [7] | Activity [24] | Activity [26] | Activity [12] | Activity [8] | Activity [28] | Activity [29]
inactive: Activity [13] | Activity [1] | Activity [15] | Activity [18] | Activity [20] | Activity [23] | Activity [27]
2690 nM: EC50 [11]
